Data as given in PMC6440935, “Characterization and phase I study of CLR457, an orally bioavailable pan-class I PI3-kinase inhibitor” (Investigational New Drugs, 2018).
Where two headings read alike, the source gives them in different places.

Settings: drug-related
Excerpt: The primary objective was to define the maximum tolerated dose (MTD). Secondary objectives included assessments for safety, tolerability, pharmacokinetic (PK) profile, and preliminary antitumor activity.
Patients had histologically documented locally advanced or metastatic solid tumors harboring an activating PIK3CA mutation or amplification, PTEN loss of function, c-MET activation, [16, 17] […] Other key inclusion criteria included age ≥ 18 years, Eastern Cooperative Oncology Group performance status (ECOG-PS) ≤2, adequate organ function, measurable or non-measurable disease as determined by Response Evaluation Criteria in Solid Tumors (RECIST) version 1.1.
The starting dose for CLR457 was 5 mg QD, based on preclinical toxicology studies in accordance with ICH guidelines, and was administered at the same time each day ±2 h in a fasted state. Various doses were planned up to 300 mg QD until MTD determination.
Safety was evaluated by incidence, nature, severity, and relatedness of adverse events (AEs), and graded according to National Cancer Institute - Common Terminology Criteria for Adverse Events (NCI CTCAE) v4.0.3. DLTs were defined as any hematologic or non-hematologic ≥ Grade 3 AE assessed as possibly related to CLR457 that occurred within the first cycle (28 days) of treatment. In addition, uncontrolled (> 14 days) Grade 2 rash or hyperglycemia were also considered DLTs. All AEs regardless of attribution were collected until 30 days following the last administration of treatment or study discontinuation/termination.
Descriptive methods were used to tabulate toxicity and response endpoints in the clinical trial. All patients treated with CLR457 were included for safety. […] Dose escalation was guided by an adaptive Bayesian logistic regression model (BLRM) incorporating the escalation with overdose control (EWOC) principle. […] The study data (including DLTs during cycle 1 and other safety and PK data) were reviewed by the sponsor and trial investigators at each dose level. […] The Full Analysis Set (FAS) included all patients who received at least one dose of CLR457. Safety set included all patients who received at least one dose of CLR457 and had at least one valid post-baseline assessment. The Dose-determining set (DDS) included all patients from the safety set who either met the following minimum exposure criterion and had sufficient safety evaluations, or experienced a DLT during Cycle 1 (the first 28 days of dosing). The Pharmacokinetic analysis set included all patients who had at least one blood sample providing evaluable PK data.

In the case of `C[C@H]1OC(=O)N(c2cc(-c3cnc(N)nc3C(F)(F)F)nc(N3CCOCC3)n2)[C@H]1CO` [CLR457], the “Decreased neutrophil count, All Grade” value (40 mg, N = 5) is reported as 0 n (%), the “Decreased neutrophil count, Grade ≥ 3” value (40 mg, N = 5) is reported as 0 n (%) and the “Dehydration, All Grade” value (40 mg, N = 5) is reported as 0 n (%). For the same molecule, the “Dehydration, Grade ≥ 3” value (40 mg, N = 5) was 0 n (%), the “Diarrhea, All Grade” value (40 mg, N = 5) was 3 (60.0) n (%) and the “Diarrhea, Grade ≥ 3” value (40 mg, N = 5) was 0 n (%). The “Dry mouth, All Grade” value (40 mg, N = 5) was 0 n (%), the “Dry mouth, Grade ≥ 3” value (40 mg, N = 5) was 0 n (%) and the “Dry skin, All Grade” value (40 mg, N = 5) was 0 n (%). The “Dry skin, Grade ≥ 3” value (40 mg, N = 5) was 0 n (%), the “Dysgeusia, All Grade” value (40 mg, N = 5) was 1 (20.0) n (%) and the “Dysgeusia, Grade ≥ 3” value (40 mg, N = 5) was 0 n (%). The “Fatigue, All Grade” value (40 mg, N = 5) was 1 (20.0) n (%), the “Fatigue, Grade ≥ 3” value (40 mg, N = 5) was 0 n (%) and the “Headache, All Grade” value (40 mg, N = 5) was 0 n (%). For the same molecule, the “Headache, Grade ≥ 3” value (40 mg, N = 5) was 0 n (%), the “Hyperglycemia, All Grade” value (40 mg, N = 5) was 2 (40.0) n (%) and the “Hyperglycemia, Grade ≥ 3” value (40 mg, N = 5) was 0 n (%). The “Hypomagnesaemia, All Grade” value (40 mg, N = 5) was 0 n (%), the “Hypomagnesaemia, Grade ≥ 3” value (40 mg, N = 5) was 0 n (%) and the “Maculo-papular rash, All Grade” value (40 mg, N = 5) was 2 (40.0) n (%). For the same molecule, the “Maculo-papular rash, Grade ≥ 3” value (40 mg, N = 5) was 2 (40.0) n (%), the “Nausea, All Grade” value (40 mg, N = 5) was 2 (40.0) n (%) and the “Nausea, Grade ≥ 3” value (40 mg, N = 5) was 0 n (%). The “Pneumonitis, All Grade” value (40 mg, N = 5) was 0 n (%), the “Pneumonitis, Grade ≥ 3” value (40 mg, N = 5) was 0 n (%) and the “Pruritus, All Grade” value (40 mg, N = 5) was 1 (20.0) n (%). For the same molecule, the “Pruritus, Grade ≥ 3” value (40 mg, N = 5) was 0 n (%), the “Pyrexia, All Grade” value (40 mg, N = 5) was 0 n (%) and the “Pyrexia, Grade ≥ 3” value (40 mg, N = 5) was 0 n (%). The “Rash, All Grade” value (40 mg, N = 5) was 0 n (%), the “Rash, Grade ≥ 3” value (40 mg, N = 5) was 0 n (%) and the “Stomatitis, All Grade” value (40 mg, N = 5) was 3 (60.0) n (%). For the same molecule, the “Stomatitis, Grade ≥ 3” value (40 mg, N = 5) was 0 n (%), the “Vomiting, All Grade” value (40 mg, N = 5) was 1 (20.0) n (%) and the “Vomiting, Grade ≥ 3” value (40 mg, N = 5) was 0 n (%). For the same molecule, the “Weight decreased, All Grade” value (40 mg, N = 5) was 1 (20.0) n (%), the “Weight decreased, Grade ≥ 3” value (40 mg, N = 5) was 0 n (%) and the “Asthenia, Grade ≥ 3” value (70 mg, N = 6) was 0 n (%). For the same molecule, the “Chills, All Grade” value (70 mg, N = 6) was 0 n (%), the “Chills, Grade ≥ 3” value (70 mg, N = 6) was 0 n (%) and the “Colitis, All Grade” value (70 mg, N = 6) was 1 (16.7) n (%). The “Colitis, Grade ≥ 3” value (70 mg, N = 6) was 1 (16.7) n (%), the “Cough, All Grade” value (70 mg, N = 6) was 0 n (%) and the “Cough, Grade ≥ 3” value (70 mg, N = 6) was 0 n (%). For the same molecule, the “Decreased appetite, All Grade” value (70 mg, N = 6) was 2 (33.3) n (%), the “Decreased appetite, Grade ≥ 3” value (70 mg, N = 6) was 0 n (%) and the “Decreased neutrophil count, All Grade” value (70 mg, N = 6) was 1 (16.7) n (%). The “Decreased neutrophil count, Grade ≥ 3” value (70 mg, N = 6) was 0 n (%), the “Dehydration, All Grade” value (70 mg, N = 6) was 1 (16.7) n (%) and the “Dehydration, Grade ≥ 3” value (70 mg, N = 6) was 1 (16.7) n (%). The “Diarrhea, All Grade” value (70 mg, N = 6) was 4 (66.7) n (%), the “Diarrhea, Grade ≥ 3” value (70 mg, N = 6) was 1 (16.7) n (%) and the “Dry mouth, All Grade” value (70 mg, N = 6) was 1 (16.7) n (%). The “Dry mouth, Grade ≥ 3” value (70 mg, N = 6) was 0 n (%), the “Dry skin, All Grade” value (70 mg, N = 6) was 1 (16.7) n (%) and the “Dry skin, Grade ≥ 3” value (70 mg, N = 6) was 0 n (%). For the same molecule, the “Dysgeusia, All Grade” value (70 mg, N = 6) was 0 n (%), the “Dysgeusia, Grade ≥ 3” value (70 mg, N = 6) was 0 n (%) and the “Fatigue, All Grade” value (70 mg, N = 6) was 1 (16.7) n (%). The “Fatigue, Grade ≥ 3” value (70 mg, N = 6) was 0 n (%), the “Headache, All Grade” value (70 mg, N = 6) was 1 (16.7) n (%) and the “Headache, Grade ≥ 3” value (70 mg, N = 6) was 0 n (%). For the same molecule, the “Hyperglycemia, All Grade” value (70 mg, N = 6) was 1 (16.7) n (%), the “Hyperglycemia, Grade ≥ 3” value (70 mg, N = 6) was 0 n (%) and the “Hypomagnesaemia, All Grade” value (70 mg, N = 6) was 1 (16.7) n (%). For the same molecule, the “Hypomagnesaemia, Grade ≥ 3” value (70 mg, N = 6) was 0 n (%), the “Maculo-papular rash, All Grade” value (70 mg, N = 6) was 2 (33.3) n (%) and the “Maculo-papular rash, Grade ≥ 3” value (70 mg, N = 6) was 1 (16.7) n (%). For the same molecule, the “Nausea, All Grade” value (70 mg, N = 6) was 2 (33.3) n (%), the “Nausea, Grade ≥ 3” value (70 mg, N = 6) was 0 n (%) and the “Pneumonitis, All Grade” value (70 mg, N = 6) was 0 n (%). The “Pneumonitis, Grade ≥ 3” value (70 mg, N = 6) was 0 n (%), the “Pruritus, All Grade” value (70 mg, N = 6) was 1 (16.7) n (%) and the “Pruritus, Grade ≥ 3” value (70 mg, N = 6) was 0 n (%). The “Pyrexia, All Grade” value (70 mg, N = 6) was 1 (16.7) n (%), the “Pyrexia, Grade ≥ 3” value (70 mg, N = 6) was 0 n (%) and the “Rash, All Grade” value (70 mg, N = 6) was 2 (33.3) n (%). For the same molecule, the “Rash, Grade ≥ 3” value (70 mg, N = 6) was 1 (16.7) n (%), the “Stomatitis, All Grade” value (70 mg, N = 6) was 2 (33.3) n (%) and the “Stomatitis, Grade ≥ 3” value (70 mg, N = 6) was 0 n (%). The “Vomiting, All Grade” value (70 mg, N = 6) was 2 (33.3) n (%), the “Vomiting, Grade ≥ 3” value (70 mg, N = 6) was 0 n (%) and the “Weight decreased, All Grade” value (70 mg, N = 6) was 1 (16.7) n (%). For the same molecule, the “Weight decreased, Grade ≥ 3” value (70 mg, N = 6) was 0 n (%), the “Asthenia, Grade ≥ 3” value (100 mg, N = 11) was 0 n (%) and the “Chills, All Grade” value (100 mg, N = 11) was 2 (18.2) n (%). For the same molecule, the “Chills, Grade ≥ 3” value (100 mg, N = 11) was 0 n (%), the “Colitis, All Grade” value (100 mg, N = 11) was 1 (9.1) n (%) and the “Colitis, Grade ≥ 3” value (100 mg, N = 11) was 1 (9.1) n (%). For the same molecule, the “Cough, All Grade” value (100 mg, N = 11) was 2 (18.2) n (%), the “Cough, Grade ≥ 3” value (100 mg, N = 11) was 0 n (%) and the “Decreased appetite, All Grade” value (100 mg, N = 11) was 4 (36.4) n (%). For the same molecule, the “Decreased appetite, Grade ≥ 3” value (100 mg, N = 11) was 0 n (%), the “Decreased neutrophil count, All Grade” value (100 mg, N = 11) was 1 (9.1) n (%) and the “Decreased neutrophil count, Grade ≥ 3” value (100 mg, N = 11) was 1 (9.1) n (%).
